Reference: ChEMBL document CHEMBL2073899, “Quantitative distinctions of active site molecular recognition by P-glycoprotein and cytochrome P450 3A4” (Chem Res Toxicol, 2001)

molecular target: ATP-dependent translocase ABCB1 (Homo sapiens, UniProt P08183); assay: TP_TRANSPORTER: inhibition of Daunorubicin efflux in NIH-3T3-G185 cells
Sequence (P08183 whole entry): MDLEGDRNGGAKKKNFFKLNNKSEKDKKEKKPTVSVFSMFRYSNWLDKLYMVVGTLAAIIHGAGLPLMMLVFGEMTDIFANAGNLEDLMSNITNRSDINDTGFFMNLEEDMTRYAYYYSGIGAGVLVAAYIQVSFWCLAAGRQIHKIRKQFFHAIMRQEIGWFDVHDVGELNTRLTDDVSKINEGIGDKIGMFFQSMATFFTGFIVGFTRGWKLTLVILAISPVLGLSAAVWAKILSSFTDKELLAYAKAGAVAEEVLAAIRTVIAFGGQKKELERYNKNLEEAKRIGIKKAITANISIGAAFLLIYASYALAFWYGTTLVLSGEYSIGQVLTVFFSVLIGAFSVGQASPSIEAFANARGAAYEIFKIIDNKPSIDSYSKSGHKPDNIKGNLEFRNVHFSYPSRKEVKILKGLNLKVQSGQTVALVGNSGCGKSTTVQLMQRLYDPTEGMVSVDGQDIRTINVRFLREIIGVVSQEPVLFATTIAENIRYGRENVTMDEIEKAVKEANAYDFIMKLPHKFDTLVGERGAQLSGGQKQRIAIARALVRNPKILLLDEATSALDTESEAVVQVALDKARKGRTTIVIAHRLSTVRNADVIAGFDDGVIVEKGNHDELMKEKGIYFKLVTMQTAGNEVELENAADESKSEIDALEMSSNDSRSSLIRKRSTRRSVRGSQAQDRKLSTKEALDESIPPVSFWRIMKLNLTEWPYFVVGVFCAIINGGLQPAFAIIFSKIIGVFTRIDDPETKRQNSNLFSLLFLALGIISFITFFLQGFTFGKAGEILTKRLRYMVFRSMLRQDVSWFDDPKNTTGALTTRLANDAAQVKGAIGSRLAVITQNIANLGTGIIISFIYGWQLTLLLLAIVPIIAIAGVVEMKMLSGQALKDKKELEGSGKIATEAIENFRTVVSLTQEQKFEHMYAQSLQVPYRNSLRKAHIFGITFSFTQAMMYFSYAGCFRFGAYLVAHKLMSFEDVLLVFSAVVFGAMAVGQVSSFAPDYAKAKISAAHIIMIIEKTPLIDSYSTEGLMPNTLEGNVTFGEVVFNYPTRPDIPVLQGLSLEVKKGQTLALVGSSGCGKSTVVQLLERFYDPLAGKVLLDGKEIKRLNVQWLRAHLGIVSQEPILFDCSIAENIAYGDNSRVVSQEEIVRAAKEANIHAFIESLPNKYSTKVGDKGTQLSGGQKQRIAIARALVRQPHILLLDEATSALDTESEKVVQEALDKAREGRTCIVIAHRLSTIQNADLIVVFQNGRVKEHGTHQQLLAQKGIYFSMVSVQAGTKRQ

Row | IC50 [µM] | Structure (SMILES)
1 | 0.9 | COc1ccc(CCNCCCC(C#N)(c2ccc(OC)c(OC)c2)C(C)C)cc1OC (stereo unspecified) [NORVERAPAMIL]
2 | 23.6 | CC(=O)S[C@@H]1CC2=CC(=O)CC[C@]2(C)[C@H]2CC[C@@]3(C)[C@@H](CC[C@@]34CCC(=O)O4)[C@H]12 [SPIRONOLACTONE]
3 | 3.2 | COc1ccc(CCN(C)CCCC(C#N)(c2cc(OC)c(OC)c(OC)c2)C(C)C)cc1OC (stereo unspecified) [GALLOPAMIL]
4 | 11.5 | COc1ccc(-c2cc(=O)c3c(OC)c(OC)c(OC)c(OC)c3o2)cc1OC [NOBILETIN]

Row | Structure (SMILES) | IC50 [µM]
5 | COC(=O)C1=C(C)NC(C)=C(C(=O)OC)C1c1ccccc1[N+](=O)[O-] [NIFEDIPINE] | 113
6 | CC(C)[C@@H]1NC(=O)[C@H](C)OC(=O)[C@@H](C(C)C)NC(=O)[C@@H](C(C)C)OC(=O)[C@H](C(C)C)NC(=O)[C@H](C)OC(=O)[C@@H](C(C)C)NC(=O)[C@@H](C(C)C)OC(=O)[C@H](C(C)C)NC(=O)[C@H](C)OC(=O)[C@@H](C(C)C)NC(=O)[C@@H](C(C)C)OC1=O [VALINOMYCIN] | 3.2
